The target in one assay is FXa (Homo sapiens, UniProt P00742). As to the kind of experiment: Related protease inhibition: FXa, fluorogenic substrate. In kind it is biochemical. As to conditions: fluorogenic substrate at Km, 25° C.; H1-H3 = % activity at 40 μM. The protocol:
Human serine protease enzyme Plasma Kallikrein, KLK1, FXa, Plasmin, Thrombin and Trypsin were assayed for enzymatic activity using an appropriate fluorogenic substrate at Km concentration, FXIa at fixed substrate concentration of 100 μM and various concentrations of the test compound.

In assay [1] the target is T1, Human Factor XIIa (hFXIIa) (Homo sapiens, UniProt P00748).
T1 construct: purchased Enzyme Research Laboratories
T1 sequence (P00748 373-615 limits assumed): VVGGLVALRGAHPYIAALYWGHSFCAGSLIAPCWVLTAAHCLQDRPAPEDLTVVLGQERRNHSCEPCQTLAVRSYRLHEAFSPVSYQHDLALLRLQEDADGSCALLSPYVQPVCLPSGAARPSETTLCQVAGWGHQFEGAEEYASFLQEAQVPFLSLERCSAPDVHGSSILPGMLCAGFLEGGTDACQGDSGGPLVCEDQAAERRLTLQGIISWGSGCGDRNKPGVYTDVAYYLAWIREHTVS
T1 sequence (P00748 20-372 partner limits assumed): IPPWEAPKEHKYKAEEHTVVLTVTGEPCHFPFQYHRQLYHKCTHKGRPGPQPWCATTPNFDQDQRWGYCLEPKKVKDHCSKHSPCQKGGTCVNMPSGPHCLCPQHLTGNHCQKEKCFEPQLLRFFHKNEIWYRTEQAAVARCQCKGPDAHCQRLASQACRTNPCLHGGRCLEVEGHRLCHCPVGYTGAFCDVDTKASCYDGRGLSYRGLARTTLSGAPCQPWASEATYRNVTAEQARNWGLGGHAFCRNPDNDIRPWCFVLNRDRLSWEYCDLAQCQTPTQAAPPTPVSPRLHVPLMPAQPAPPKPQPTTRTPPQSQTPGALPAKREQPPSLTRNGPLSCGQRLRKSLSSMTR
Briefly: Determination of Human Factor XIIa (hFXIIa) inhibition, fluorogenic substrate IC50 assay. The note with it: fluorogenic substrate H-DPro-Phe-Arg-AFC at Km, 25° C., read-out: Human FXIIa IC50. The assay is classed as biochemical. How it is done: Determination of Human Factor XIIa (hFXIIa) inhibition
The Km for the cleavage of the substrate by hFXIIa was determined by standard transformation of the Michaelis-Menten equation, with subsequent inhibition assays performed at substrate Km concentration.

Structures are written as SMILES.

Sequence of FXa (P00742 235-488 limits assumed): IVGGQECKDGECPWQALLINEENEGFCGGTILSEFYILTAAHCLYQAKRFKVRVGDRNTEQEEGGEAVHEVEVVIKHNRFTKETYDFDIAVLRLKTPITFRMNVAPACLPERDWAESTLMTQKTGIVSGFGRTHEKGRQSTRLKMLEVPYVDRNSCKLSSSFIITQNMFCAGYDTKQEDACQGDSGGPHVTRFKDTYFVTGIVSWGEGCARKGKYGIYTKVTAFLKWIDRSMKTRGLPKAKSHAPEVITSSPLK
Sequence of FXa (P00742 41-179 partner limits assumed): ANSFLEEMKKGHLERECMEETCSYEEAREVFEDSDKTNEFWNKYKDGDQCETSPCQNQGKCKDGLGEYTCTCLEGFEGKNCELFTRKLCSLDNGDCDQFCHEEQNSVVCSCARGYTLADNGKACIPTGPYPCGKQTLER

Consider `Cc1ccncc1CNC(=O)c1nn(-c2cccc(Cl)c2)c2c1CCN(c1ccc3c(c1)CN(C)CC3)C2=O` [Example 1129, 1-(3-chlorophenyl)-6-(2-methyl-1,2,3,4-tetrahydroisoquinolin-7-yl)-N-((4-methylpyridin-3-yl)methyl)-7-oxo-4,5,6,7-tetrahydro-1H-pyrazolo[3,4-c]pyridine-3-carboxamide], for which the IC50 (commonly the concentration that inhibits the measured activity by half) was in the range of 3000 to 10000 nM against FXa and 10 to 100 nM in assay [1].

In the case of `O=C(NCc1ncccc1F)c1nn(-c2cccc(Cl)c2)c2c1CCN(c1ccc3c(c1)CN(CCO)CC3)C2=O` [Example 1130, 1-(3-chlorophenyl)-N-((3-fluoropyridin-2-yl)methyl)-6-(2-(2-hydroxyethyl)-1,2,3,4-tetrahydroisoquinolin-7-yl)-7-oxo-4,5,6,7-tetrahydro-1H-pyrazolo[3,4-c]pyridine-3-carboxamide], the results for the IC50 (against FXa; in assay [1]) were 10000 to 40000 nM and 10 to 100 nM, respectively.

Consider `Cn1ccc(CNC(=O)c2nn(-c3cccc(Cl)c3)c3c2CCN(c2ccc4c(c2)CN(CCO)CC4)C3=O)n1` [Example 1132, 1-(3-chlorophenyl)-6-(2-(2-hydroxyethyl)-1,2,3,4-tetrahydroisoquinolin-7-yl)-N-((1-methyl-1H-pyrazol-3-yl)methyl)-7-oxo-4,5,6,7-tetrahydro-1H-pyrazolo[3,4-c]pyridine-3-carboxamide], for which the IC50 lay within 10000 to 40000 nM at FXa and 10 to 100 nM in assay [1].

Regarding `Cc1ccncc1CNC(=O)c1nn(-c2cccc(Cl)c2)c2c1CCN(c1cc3c(cc1F)CCN(CCO)C3)C2=O` [Example 1134, 1-(3-Chlorophenyl)-6-(6-fluoro-2-(2-hydroxyethyl)-1,2,3,4-tetrahydroisoquinolin-7-yl)-N-((4-methylpyridin-3-yl)methyl)-7-oxo-4,5,6,7-tetrahydro-1H-pyrazolo[3,4-c]pyridine-3-carboxamide], the IC50 against FXa lay within 10000 to 40000 nM; in assay [1] it was 10 to 100 nM.

On to `COc1ccc(CNC(=O)c2nn(-c3cccc(Cl)c3)c3c2CCN(c2ccc4c(c2)CN(C)CC4)C3=O)cn1` [Example 1135, 1-(3-chlorophenyl)-N-((6-methoxypyridin-3-yl)methyl)-6-(2-methyl-1,2,3,4-tetrahydroisoquinolin-7-yl)-7-oxo-4,5,6,7-tetrahydro-1H-pyrazolo[3,4-c]pyridine-3-carboxamide], for which the IC50 against FXa is 1000 to 3000 nM; in assay [1], 10 to 100 nM.

Take `O=C(NCc1cncc(F)c1)c1nn(-c2cccc(Cl)c2)c2c1CCN(c1ccc3c(c1)CN(CCO)CC3)C2=O` [Example 1137, 1-(3-chlorophenyl)-N-((5-fluoropyridin-3-yl)methyl)-6-(2-(2-hydroxyethyl)-1,2,3,4-tetrahydroisoquinolin-7-yl)-7-oxo-4,5,6,7-tetrahydro-1H-pyrazolo[3,4-c]pyridine-3-carboxamide]: the IC50 on FXa lay in the range of 10000 to 40000 nM; in assay [1] it was 10 to 100 nM.

For the compound `COc1ccc(CNC(=O)c2nn(-c3cccc(Cl)c3)c3c2CCN(c2ccc4c(c2)CN(CCO)CC4)C3=O)cn1` [Example 1138, 1-(3-chlorophenyl)-6-(2-(2-hydroxyethyl)-1,2,3,4-tetrahydroisoquinolin-7-yl)-N-((6-methoxypyridin-3-yl)methyl)-7-oxo-4,5,6,7-tetrahydro-1H-pyrazolo[3,4-c]pyridine-3-carboxamide], the 50% inhibitory concentration (IC50) lay in the range of 3000 to 10000 nM against FXa and 10 to 100 nM in assay [1].

As for `Cc1cccc(CNC(=O)c2nn(-c3cccc(Cl)c3)c3c2CCN(c2ccc4c(c2)CN(CCO)CC4)C3=O)n1` [Example 1139, 1-(3-chlorophenyl)-6-(2-(2-hydroxyethyl)-1,2,3,4-tetrahydroisoquinolin-7-yl)-N-((6-methylpyridin-2-yl)methyl)-7-oxo-4,5,6,7-tetrahydro-1H-pyrazolo[3,4-c]pyridine-3-carboxamide], the IC50 is 10000 to 40000 nM against FXa and 10 to 100 nM in assay [1].

`CCN1CCc2ccc(N3CCc4c(C(=O)NCc5cnccc5C)nn(-c5cccc(Cl)c5)c4C3=O)cc2C1` [Example 1140, 1-(3-chlorophenyl)-6-(2-ethyl-1,2,3,4-tetrahydroisoquinolin-7-yl)-N-((4-methylpyridin-3-yl)methyl)-7-oxo-4,5,6,7-tetrahydro-1H-pyrazolo[3,4-c]pyridine-3-carboxamide]: the figures for the IC50 (against FXa; in assay [1]) were 3000 to 10000 nM and 10 to 100 nM, respectively.

As for `COc1cncc(CNC(=O)c2nn(-c3cccc(Cl)c3)c3c2CCN(c2ccc4c(c2)CN(CCO)CC4)C3=O)c1` [Example 1141, 1-(3-chlorophenyl)-6-(2-(2-hydroxyethyl)-1,2,3,4-tetrahydroisoquinolin-7-yl)-N-((5-methoxypyridin-3-yl)methyl)-7-oxo-4,5,6,7-tetrahydro-1H-pyrazolo[3,4-c]pyridine-3-carboxamide], the IC50 lay within 3000 to 10000 nM against FXa and 10 to 100 nM in assay [1].

On to `O=C(NCC1CC1(F)F)c1nn(-c2cccc(Cl)c2)c2c1CCN(c1ccc3c(c1)CN(CCO)CC3)C2=O` (stereo not drawn) [Example 1142, 1-(3-chlorophenyl)-N-((2,2-difluorocyclopropyl)methyl)-6-(2-(2-hydroxyethyl)-1,2,3,4-tetrahydroisoquinolin-7-yl)-7-oxo-4,5,6,7-tetrahydro-1H-pyrazolo[3,4-c]pyridine-3-carboxamide], for which the IC50 against FXa is greater than 40000 nM; in assay [1] it was 100 to 300 nM.

On to `O=C(NCC1CC1)c1nn(-c2cccc(Cl)c2)c2c1CCN(c1ccc3c(c1)CN(CCO)CC31CC1)C2=O` [Example 1143, 1-(3-chlorophenyl)-N-(cyclopropylmethyl)-6-(2′-(2-hydroxyethyl)-2′,3′-dihydro-1′H-spiro[cyclopropane-1,4′-isoquinolin]-7′-yl)-7-oxo-4,5,6,7-tetrahydro-1H-pyrazolo[3,4-c]pyridine-3-carboxamide], for which the results for the IC50 (against FXa; in assay [1]) were 3000 to 10000 nM and 100 to 300 nM, respectively.

As for `Cc1ccncc1CNC(=O)c1nn(-c2cccc(Cl)c2)c2c1CCN(c1ccc3c(c1)CN(CCO)CC31CC1)C2=O` [Example 1144, 1-(3-Chlorophenyl)-6-(2′-(2-hydroxyethyl)-2′,3′-dihydro-1′H-spiro[cyclopropane-1,4′-isoquinolin]-7′-yl)-N-((4-methylpyridin-3-yl)methyl)-7-oxo-4,5,6,7-tetrahydro-1H-pyrazolo[3,4-c]pyridine-3-carboxamide], the IC50 lay in the range of 1000 to 3000 nM against FXa and 10 to 100 nM in assay [1].

On to `C[C@@H](NC(=O)c1nn(-c2cccc(Cl)c2)c2c1CCN(c1ccc3c(c1)CN(CCO)CC3)C2=O)c1cccnc1` [Example 1145, (R)-1-(3-chlorophenyl)-6-(2-(2-hydroxyethyl)-1,2,3,4-tetrahydroisoquinolin-7-yl)-7-oxo-N-(1-(pyridin-3-yl)ethyl)-4,5,6,7-tetrahydro-1H-pyrazolo[3,4-c]pyridine-3-carboxamide], for which the IC50 against FXa lay within 10000 to 40000 nM; in assay [1], 100 to 300 nM.

For `O=C(NCc1ccn(C2CC2)n1)c1nn(-c2cccc(Cl)c2)c2c1CCN(c1ccc3c(c1)CN(CCO)CC3)C2=O` [Example 1146, 1-(3-chlorophenyl)-N-((1-cyclopropyl-1H-pyrazol-3-yl)methyl)-6-(2-(2-hydroxyethyl)-1,2,3,4-tetrahydroisoquinolin-7-yl)-7-oxo-4,5,6,7-tetrahydro-1H-pyrazolo[3,4-c]pyridine-3-carboxamide], the results for the IC50 (at FXa; in assay [1]) were 10000 to 40000 nM and 10 to 100 nM, respectively.

On to `Cc1ccc(CNC(=O)c2nn(-c3cccc(Cl)c3)c3c2CCN(c2ccc4c(c2)CN(CCO)CC4)C3=O)cn1` [Example 1147, 1-(3-chlorophenyl)-6-(2-(2-hydroxyethyl)-1,2,3,4-tetrahydroisoquinolin-7-yl)-N-((6-methylpyridin-3-yl)methyl)-7-oxo-4,5,6,7-tetrahydro-1H-pyrazolo[3,4-c]pyridine-3-carboxamide], for which the IC50 against FXa fell in the range of 10000 to 40000 nM; in assay [1], 10 to 100 nM.

For `Cc1ccncc1CNC(=O)c1nn(-c2cccc(Cl)c2)c2c1CCN(c1ccc3c(c1)CN(CCO)C[C@@H]3C)C2=O` [Example 1148, (R)-1-(3-Chlorophenyl)-6-(2-(2-hydroxyethyl)-4-methyl-1,2,3,4-tetrahydroisoquinolin-7-yl)-N-((4-methylpyridin-3-yl)methyl)-7-oxo-4,5,6,7-tetrahydro-1H-pyrazolo[3,4-c]pyridine-3-carboxamide], the IC50 lay in the range of 10000 to 40000 nM against FXa and 100 to 300 nM in assay [1].

With `CCN1CCc2ccc(N3CCc4c(C(=O)NCc5cc(C6CC6)n[nH]5)nn(-c5cccc(Cl)c5)c4C3=O)cc2C1` [Example 1150, 1-(3-chlorophenyl)-N-((3-cyclopropyl-1H-pyrazol-5-yl)methyl)-6-(2-ethyl-1,2,3,4-tetrahydroisoquinolin-7-yl)-7-oxo-4,5,6,7-tetrahydro-1H-pyrazolo[3,4-c]pyridine-3-carboxamide], the IC50 was 3000 to 10000 nM on FXa and 10 to 100 nM in assay [1].

These data come from patent publication US20260132132A1, “3A,4,5,6-TETRAHYDRO-1 H-PYRAZOLO[3,4-C]PYRIDIN-7(7AH)-ONE DERIVATIVES AS FACTOR XIIA INHIBITORS” (KALVISTA PHARMACEUTICALS LIMITED, priority 2022, published 2026).
